Biological target: T1, Cgs (CgsWT) (Agrobacterium fabrum, UniProt Q7CWD9)
T1 construct: gene chvB; full length, C-terminal 3xFlag from chromosomal insertion; purified from native A. tumefaciens C58 membranes in DDM; nanodiscs (cryo-EM) or proteoliposomes (activity); subpopulation of dimers
Experiment: cryo-EM structure
Format: binding
Settings: GT active site; sample incubated with 5 mM UDP-Glc, 1.5 mM MgCl2, pH 7.5, 22 °C; putative UDP density

Structure (SMILES): O=c1ccn([C@@H]2O[C@H](COP(=O)(O)OP(=O)(O)O)[C@@H](O)[C@H]2O)c(=O)[nH]1 [UDP]
- cryo-EM structure: The CgsWT model contains an additional density docked at the active site

— paper PMC10901819, “Structure-function analysis of the cyclic β-1,2-glucan synthase from Agrobacterium tumefaciens” (Nature Communications, 2024)
